# Ends that are not written are not given here.
# Legend:
# [1] = tested on: HIV-1HXB2 (gp41); details: 1HXB2 (gp41, 48 h)
# [2] = target: fluorescein-labeled 5-Helix (Human immunodeficiency virus type 1 group M subtype B, UniProt P04578, C598G/DEL582-596/DEL601-623/N624G); type: binding, HIV-1HXB2
# [3] = tested on: EnvG547D/I548T and EnvV549E; type: cell-based; details: versus wild type Env
# [4] = tested on: HIV-1HXB2; type: cell-based; details: low (HOS-CD4-CCR5) versus high (HOS-CD4-CXCR4) CXCR4, HIV-1HXB2
# [5] = tested on: HIV-1; details: compared with wild type C37; ref KMK and MJR, manuscript in preparation; cited from earlier work
sequence,measurement,setting,value
GGHTTDMEWDREANNYTSLIHSLIEESQNQQEKNEQELLGHHHHHH [W628D/I635A],IC50,[1],97 ± 8.4 nM
GGHTTDMEWDREINNYTSLAHSLIEESQNQQEKNEQELLGHHHHHH [W628D/I642A],IC50,[1],65 ± 9.8 nM
GGHTTWMEWDREANNYTSLIHSLIEESQNQQEKNEQELLGHHHHHH [Variant I635A],IC50,[1],5.7 ± 1.6 nM
GGHTTWMEWDREDNNYTSLIHSLIEESQNQQEKNEQELLGHHHHHH [Variant I635D],IC50,[1],3100 ± 350 nM
GGHTTWMEWDREINKYISLIHSLIEESQNQQEKNEQELLGHHHHHH [N637K/T639I (KYI)],kon,[2],2.4±0.1 x10^7 M-1s-1
same,τoff (time constant for dissociation),"[2]; C37 variants, reciprocal of koff",11000 min
same,impact of G547D/I548T and V549E substitutions on potency,[3],minimal impact
same,IC50,[1],0.96 ± 0.1 nM
same,increase in potency on lowering CXCR4 levels,[4],3.5 fold
same,resistance development,[5],takes much longer to achieve and requires more escape mutations than resistance to wild type C37
GGHTTWMEWDREINKYTSLIHSLIEESQNQQEKNEQELLGHHHHHH [N637K (KYT)],IC50,[1],1.65 ± 0.05 nM
GGHTTWMEWDREINNYISLIHSLIEESQNQQEKNEQELLGHHHHHH [T639I (NYI)],IC50,[1],1.7 ± 0.1 nM
GGHTTWMEWDREINNYTSLAHSLIEESQNQQEKNEQELLGHHHHHH [Variant I642A],IC50,[1],7 ± 1.5 nM
GGHTTWMEWDREINNYTSLDHSLIEESQNQQEKNEQELLGHHHHHH [Variant I642D],IC50,[1],13000 ± 2100 nM
GGHTTWMEWDREINNYTSLIHSAIEESQNQQEKNEQELLGHHHHHH [Variant L645A],IC50,[1],3.9 ± 0.7 nM
GGHTTWMEWDREINNYTSLIHSDIEESQNQQEKNEQELLGHHHHHH [Variant L645D],IC50,[1],630 ± 120 nM
GGHTTWMEWDREINNYTSLIHSLIEEAQNQQEKNEQELLGHHHHHH [Variant S649A],IC50,[1],1.6 ± 0.41 nM
GGHTTWMEWDREINNYTSLIHSLIEEDQNQQEKNEQELLGHHHHHH [Variant S649D],IC50,[1],2300 ± 170 nM
GGHTTWMEWDREINNYTSLIHSLIEESQNAQEKNEQELLGHHHHHH [Variant Q652A],IC50,[1],3.5 ± 0.81 nM
GGHTTWMEWDREINNYTSLIHSLIEESQNDQEKNEQELLGHHHHHH [Variant Q652D],IC50,[1],53 ± 0.98 nM
GGHTTWMEWDREINNYTSLIHSLIEESQNQQEKAEQELLGHHHHHH [Variant N656A],IC50,[1],30 ± 4.2 nM
GGHTTWMEWDREINNYTSLIHSLIEESQNQQEKDEQELLGHHHHHH [Variant N656D],IC50,[1],100 ± 8.9 nM
GGHTTWMEWDREINNYTSLIHSLIEESQNQQEKNEQALLGHHHHHH [Variant E659A],IC50,[1],1.2 ± 0.13 nM

# From article PMC2776349, “Asymmetric Deactivation of HIV-1 gp41 following Fusion Inhibitor Binding” (PLoS Pathogens, 2009)
